# Results taken from patent US10273248B2, “Glucose uptake inhibitors” (Kadmon Corporation LLC, priority 2015, dated 2019).
# System: glycolysis in HT1080 cells
# Assay: Glycolysis assay: oligomycin plus compound, cellular ATP by Cell Titer Glo
# Assay type: cell-based
# Settings: 10 μM oligomycin, one hour, class symbols
# How it was run: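 Confluent HT1080 cells treated 1 h with compound plus 10 μM oligomycin to block mitochondrial ATP, so remaining ATP reflects glycolysis. Cellular ATP read by Cell Titer-Glo luminescence; IC50 derived from dose-response curves.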
row,SMILES,IC50 [nM]
1,"O=C(Nc1cccc(-c2nc(Nc3ccc(-c4cn[nH]c4)cc3)c3sccc3n2)c1)c1cccnc1 [Example 178, N-(3-(4-((4-(1H-pyrazol-4-yl)phenyl)amino)thieno[3,2-d]pyrimidin-2-yl)phenyl)nicotinamide]",10 to 100

# Same assay, conditions: Homo sapiens, HT-1080, 1 h, 10 μM oligomycin, one hour, class symbols
row,SMILES,IC50 [nM]
1,"CC(C(=O)Nc1cccc(-c2nc(Nc3ccc(-c4cn[nH]c4)cc3)c3sccc3n2)c1)N1CCOCC1 (stereo not drawn) [Example 173, N-(3-(4-((4-(1H-pyrazol-4-yl)phenyl)amino)thieno[3,2-d]pyrimidin-2-yl)phenyl)-2-morpholinopropanamide]",251 to 500
2,"O=C(COc1cccc(-c2nc3c(c(Nc4ccc(-c5cn[nH]c5)cc4)n2)COCC3)c1)NC1CCC1 [Example 109, 2-(3-(4-((4-(1H-pyrazol-4-yl)phenyl)amino)-7,8-dihydro-5H-pyrano[4,3-d]pyrimidin-2-yl)phenoxy)-N-cyclobutylacetamide]",10 to 100
3,O=C(COc1cccc(-c2nc(Nc3ccc(-c4cn[nH]c4)cc3)c3occc3n2)c1)NC1CCC1 [Example 25],251 to 500
4,"CCC(C)(C)NC(=O)COc1cccc(-c2nc3c(c(Nc4ccc(-c5cn[nH]c5)cc4)n2)CN(C(=O)C(C)C)CC3)c1 [Example 156, 2-(3-(4-((4-(1H-pyrazol-4-yl)phenyl)amino)-6-isobutyryl-5,6,7,8-tetrahydropyrido[4,3-d]pyrimidin-2-yl)phenoxy)-N-(tert-pentyl)acetamide]",10 to 100
5,"CC(C)C(=O)N1CCc2nc(-c3cccc(OCC(=O)NC(C)(C)C)c3)nc(Nc3ccc(-c4cn[nH]c4)cc3)c2C1 [Example 151, 2-(3-(4-((4-(1H-pyrazol-4-yl)phenyl)amino)-6-isobutyryl-5,6,7,8-tetrahydropyrido[4,3-d]pyrimidin-2-yl)phenoxy)-N-(tert-butyl)acetamide]",10 to 100
6,O=C(CN1CCOCC1)Nc1cccc(-c2nc(Nc3ccc4[nH]ncc4c3)c3ccsc3n2)c1 [Example 18],> 1000
7,"CNC(=O)COc1cccc(-c2nc(Nc3ccc(-c4cn[nH]c4)cc3)c3ccsc3n2)c1 [Example 45, 2-(3-(4-((4-(1H-pyrazol-4-yl)phenyl)amino)thieno[2,3-d]pyrimidin-2-yl)phenoxy)-N-methylacetamide]",> 1000
8,"CNC(=O)COc1cccc(-c2nc(Nc3ccc(-c4cn[nH]c4)cc3)c3sccc3n2)c1 [Example 40, 2-(3-(4-((4-(1H-pyrazol-4-yl)phenyl)amino)thieno[3,2-d]pyrimidin-2-yl)phenoxy)-N-methylacetamide]",> 1000
9,"CC(=O)N1Cc2nc(-c3cccc(OCC(=O)NC(C)C)c3)nc(Nc3ccc(-c4cn[nH]c4)cc3)c2C1 [Example 140, 2-(3-(4-((4-(1H-pyrazol-4-yl)phenyl)amino)-6-acetyl-6,7-dihydro-5H-pyrrolo[3,4-d]pyrimidin-2-yl)phenoxy)-N-isopropylacetamide]",101 to 250
10,"CC(C)NC(=O)COc1cc(-c2nc3c(c(Nc4ccc(-c5cn[nH]c5)cc4)n2)COC3)ccc1F [Example 95, 2-(5-(4-((4-(1H-pyrazol-4-yl)phenyl)amino)-5,7-dihydrofuro[3,4-d]pyrimidin-2-yl)-2-fluorophenoxy)-N-isopropylacetamide]",> 1000
11,"CCC(C)(C)NC(=O)COc1cccc(-c2nc3c(c(Nc4ccc(-c5cn[nH]c5)cc4)n2)CNCC3)c1 [Example 128, 2-(3-(4-((4-(1H-pyrazol-4-yl)phenyl)amino)-5,6,7,8-tetrahydropyrido[4,3-d]pyrimidin-2-yl)phenoxy)-N-(tert-pentyl)acetamide]",10 to 100
12,"CCC(=O)N1CCc2nc(-c3cccc(OCC(=O)NC(C)(C)CC)c3)nc(Nc3ccc(-c4cn[nH]c4)cc3)c2C1 [Example 132, 2-(3-(4-((4-(1H-pyrazol-4-yl)phenyl)amino)-6-propionyl-5,6,7,8-tetrahydropyrido[4,3-d]pyrimidin-2-yl)phenoxy)-N-(tert-pentyl)acetamide]",10 to 100
13,"CCC(C)(C)NC(=O)COc1cccc(-c2nc3c(c(Nc4ccc(-c5cn[nH]c5)cc4)n2)COCC3)c1 [Example 166, 2-(3-(4-((4-(1H-pyrazol-4-yl)phenyl)amino)-7,8-dihydro-5H-pyrano[4,3-d]pyrimidin-2-yl)phenoxy)-N-(tert-pentyl)acetamide]",10 to 100
14,"CC(C)(C)NC(=O)COc1cccc(-c2nc(Nc3ccc(-c4cn[nH]c4)cc3)c3sccc3n2)c1 [Example 110, 2-(3-(4-((4-(1H-pyrazol-4-yl)phenyl)amino)thieno[3,2-d]pyrimidin-2-yl)phenoxy)-N-(tert-butyl)acetamide]",101 to 250
15,"CC(C)NC(=O)COc1cccc(-c2nc3c(c(Nc4ccc(-c5cn[nH]c5)cc4)n2)COCC3)c1 [Example 102, 2-(3-(4-((4-(1H-pyrazol-4-yl)phenyl)amino)-7,8-dihydro-5H-pyrano[4,3-d]pyrimidin-2-yl)phenoxy)-N-isopropylacetamide]",10 to 100
16,"CCN1CCc2nc(-c3cccc(OCC(=O)NCC(C)C)c3)nc(Nc3ccc(-c4cn[nH]c4)cc3)c2C1 [Example 164, 2-(3-(4-((4-(1H-pyrazol-4-yl)phenyl)amino)-6-ethyl-5,6,7,8-tetrahydropyrido[4,3-d]pyrimidin-2-yl)phenoxy)-N-isobutylacetamide]",251 to 500
17,"CC(=O)N1CCc2nc(-c3cccc(OCC(=O)NCC(C)(C)C)c3)nc(Nc3ccc(-c4cn[nH]c4)cc3)c2C1 [Example 147, 2-(3-(4-((4-(1H-pyrazol-4-yl)phenyl)amino)-6-acetyl-5,6,7,8-tetrahydropyrido[4,3-d]pyrimidin-2-yl)phenoxy)-N-neopentylacetamide]",10 to 100
18,CC(C)NC(=O)COc1cc(F)cc(-c2nc3c(c(Nc4ccc(-c5cn[nH]c5)cc4)n2)COC3)c1 [Example 33],501 to 1000
19,"CCN1CCc2nc(-c3cccc(OCC(=O)NCC(C)(C)C)c3)nc(Nc3ccc(-c4cn[nH]c4)cc3)c2C1 [Example 170, 2-(3-(4-((4-(1H-pyrazol-4-yl)phenyl)amino)-6-ethyl-5,6,7,8-tetrahydropyrido[4,3-d]pyrimidin-2-yl)phenoxy)-N-neopentylacetamide]",101 to 250
20,"CC(NC(=O)COc1cccc(-c2nc3c(c(Nc4ccc(-c5cn[nH]c5)cc4)n2)COC3)c1)C(F)(F)F (stereo not drawn) [Example 90, 2-(3-(4-((4-(1H-pyrazol-4-yl)phenyl)amino)-5,7-dihydrofuro[3,4-d]pyrimidin-2-yl)phenoxy)-N-(1,1,1-trifluoropropan-2-yl)acetamide]",10 to 100
21,"O=C(COc1cccc(-c2nc(Nc3ccc(-c4cn[nH]c4)cc3)c3sccc3n2)c1)N1CCOCC1 [Example 38, 2-(3-(4-((4-(1H-pyrazol-4-yl)phenyl)amino)thieno[3,2-d]pyrimidin-2-yl)phenoxy)-1-morpholinoethan-1-one]",501 to 1000
22,"O=C(COc1cccc(-c2nc(Nc3ccc(-c4cn[nH]c4)cc3)c3ccncc3n2)c1)NC1CCCC1 [Example 64, 2-(3-(4-((4-(1H-pyrazol-4-yl)phenyl)amino)pyrido[3,4-d]pyrimidin-2-yl)phenoxy)-N-cyclopentylacetamide]",10 to 100
23,"O=C(COc1cccc(-c2nc(Nc3ccc(-c4cn[nH]c4)cc3)c3ncsc3n2)c1)NC1CCCC1 [Example 67, 2-(3-(7-((4-(1H-pyrazol-4-yl)phenyl)amino)thiazolo[5,4-d]pyrimidin-5-yl)phenoxy)-N-cyclopentylacetamide]",101 to 250
